Where “and” joins values, the source holds several entries; their conditions need not be identical. Equal values may be shown once. Read-outs that look alike come from different tables or passages of the source. Blank lines part the entries; values can stand above or below the molecule they belong to.
Tests used:
P. dumerilii embryos = experiment: Developmental toxicity assay with P. dumerilii embryos, dilution factor of in-use concentration (EC50,DF), also after degradation in darkness; type: in vivo, Platynereis dumerilii; settings: for Normal development: 2,6-DCQ
In short: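 In-use DBP doses (3-log E. coli reduction, pH 7.2) were serially diluted onto embryos at 12 h postfertilization in seawater. Normal development to first larval stage was scored by microscopy at 24 h postfertilization, in duplicate. EC50,DF is the dilution factor giving 50% of control normal development.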

S. aureus (ATCC 25923) = experiment: Inactivation of S. aureus (contact time 5 min); type: cell-based, Staphylococcus aureus
In short: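 Cells (10^6‒10^7 per mL) in 10 mM PBS pH 7.2 exposed to a series of DBP doses for 5 min at 22 ± 1 °C. Survivors enumerated by membrane filtration and colony counts after 24 h at 37 °C (S. aureus, Tryptone Soya; C. albicans, Sabouraud) relative to undisinfected control.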

[1] = Degradation in seawater in darkness (pH 6.2, 7.2, 8.2)
In short: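 DBP spiked at 10 mg L^−1 into pretreated seawater in foil-wrapped quartz flasks, held at 20 °C in darkness for 0‒120 h with 4 mM phosphate buffer at pH 6.2, 7.2 or 8.2. Aliquots analysed by reversed-phase HPLC-UV (230 or 280 nm); duplicate runs.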

E. coli (ATCC 25922) = experiment: Inactivation of E. coli by disinfectants (membrane filter enumeration, contact time 5 min); type: cell-based, Escherichia coli; settings: for log reduction at 500 µg/mL / EC (3-log inactivation): Escherichia coli, ATCC25922, 5 min; for log reduction at 500 µg/mL: dose 500 mg L-1, 5 min, read-out: Log (N/N0)
In short: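 E. coli ATCC 25922 (10^6‒10^7 cells/mL) exposed to a series of DBP doses in 10 mM PBS (pH 7.2; pH effect tested at 6.2, 7.2, 8.2) for 5 min at 22 ± 1 °C. Survivors enumerated by membrane filtration on m-FC medium at 45 °C for 24 h; inactivation relative to undisinfected control.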

- Relative concentration remaining (1 at 0 min) ([1]; pH 6.2, degradation time 0 min): 1
- Relative concentration remaining (1 at 0 min) ([1]; pH 6.2, degradation time 15 min): 1.009 and 0.9751
- Relative concentration remaining (1 at 0 min) ([1]; pH 6.2, degradation time 30 min): 1.028 and 0.9729
- Relative concentration remaining (1 at 0 min) ([1]; pH 6.2, degradation time 60 min): 1.02 and 0.9831
- Relative concentration remaining (1 at 0 min) ([1]; pH 6.2, degradation time 90 min): 0.9778 and 1.02
- Relative concentration remaining (1 at 0 min) ([1]; pH 6.2, degradation time 120 min): 1 and 0.9297
- Relative concentration remaining (1 at 0 min) ([1]; pH 6.2, degradation time 180 min): 0.9306 and 0.9617
- Relative concentration remaining (1 at 0 min) ([1]; pH 6.2, degradation time 240 min): 0.9273 and 0.981
- Relative concentration remaining (1 at 0 min) ([1]; pH 7.2, degradation time 0 min): 1
- Relative concentration remaining (1 at 0 min) ([1]; pH 7.2, degradation time 15 min): 1.0017 and 0.9494
- Relative concentration remaining (1 at 0 min) ([1]; pH 7.2, degradation time 30 min): 1.002 and 0.9365
- Relative concentration remaining (1 at 0 min) ([1]; pH 7.2, degradation time 45 min): 0.934 and 0.9212
- Relative concentration remaining (1 at 0 min) ([1]; pH 7.2, degradation time 60 min): 0.9213 and 0.886
- Relative concentration remaining (1 at 0 min) ([1]; pH 7.2, degradation time 90 min): 0.8145 and 0.7791
- Relative concentration remaining (1 at 0 min) ([1]; pH 7.2, degradation time 120 min): 0.7145 and 0.6664
- Relative concentration remaining (1 at 0 min) ([1]; pH 7.2, degradation time 180 min): 0.5609 and 0.5354
- Relative concentration remaining (1 at 0 min) ([1]; pH 8.2, degradation time 0 min): 1
- Relative concentration remaining (1 at 0 min) ([1]; pH 8.2, degradation time 3 min): 0.721 and 0.687
- Relative concentration remaining (1 at 0 min) ([1]; pH 8.2, degradation time 8 min): 0.4796 and 0.4372
- Relative concentration remaining (1 at 0 min) ([1]; pH 8.2, degradation time 12 min): 0.4155 and 0.3689
- Relative concentration remaining (1 at 0 min) ([1]; pH 8.2, degradation time 16 min): 0.2998 and 0.2743
- Relative concentration remaining (1 at 0 min) ([1]; pH 8.2, degradation time 20 min): 0.2215 and 0.1988
- Relative concentration remaining (1 at 0 min) ([1]; pH 8.2, degradation time 25 min): 0.1592 and 0.1253
- half-life at 10 mg L−1 ([1]; pretreated seawater in darkness, pH 8.2): 0.16 h
- Ln (C/C0) ([1]; seawater pH 8.2, darkness, 0 min): 0
SMILES: Oc1cc(I)c(O)cc1I [2,5-DIHQ, 2,5-diiodohydroquinone]
- Normal development (%) (P. dumerilii embryos; dilution factor 86.0274): 0.8729% and 0%
- Normal development (%) (P. dumerilii embryos; dilution factor 103.233): 7.707% and 3.405%
- Normal development (%) (P. dumerilii embryos; dilution factor 129.041): 16.1617% and 11.8279%
- Normal development (%) (P. dumerilii embryos; dilution factor 172.055): 46.0177% and 46.8181%
- Normal development (%) (P. dumerilii embryos; dilution factor 258.082): 63.2599% and 58.9623%
- Normal development (%) (P. dumerilii embryos; dilution factor 516.165): 88.6525% and 83.3333%
- log reduction at 300 µg/mL (S. aureus (ATCC 25923); Staphylococcus aureus, ATCC25923, 5 min, pH 7.2, S. aureus, dose 300 mg L-1, pH 7.2, contact time 5 min, read-out: Log (N/N0)): 0.792
- log reduction at 500 µg/mL (E. coli (ATCC 25922); pH 6.2, E. coli, pH 6.2): 1.76
- log reduction at 500 µg/mL (E. coli (ATCC 25922); pH 7.2, E. coli, pH 7.2): 3.66
- log reduction at 500 µg/mL (E. coli (ATCC 25922); pH 8.2, E. coli, pH 8.2): 5.5
- EC (3-log inactivation) (E. coli (ATCC 25922); pH 7.2, contact time 5 min, read-out: Dose for achieving 3-log inactivation of E. coli): 459 µg/mL
- E. coli inactivation rate constant k (E. coli (ATCC 25922); pH 7.2, contact time 5 min): 0.13 L mg‒1 h‒1

SMILES: O=C1C=C(Cl)C(=O)C(Cl)=C1 [2,6-DCQ, 2,6-dichlorobenzoquinone]
- Normal development (P. dumerilii embryos; degradation 0 h, dilution factor 12.8): 7.407% and 6.667%
- Normal development (P. dumerilii embryos; degradation 0 h, dilution factor 17.0667): 16.2963% and 20.7921%
- Normal development (P. dumerilii embryos; degradation 0 h, dilution factor 21.3333): 42.1875% and 37.2727%
- Normal development (P. dumerilii embryos; degradation 0 h, dilution factor 25.6): 62.0155% and 62.3077%
- Normal development (P. dumerilii embryos; degradation 0 h, dilution factor 32): 80% and 80.822%
- Normal development (P. dumerilii embryos; degradation 0 h, dilution factor 42.6667): 76.7442% and 82.4428%
- Normal development (P. dumerilii embryos; degradation 1 h, dilution factor 6.4): 1.886% and 1.145%
- Normal development (P. dumerilii embryos; degradation 1 h, dilution factor 8.5333): 4.186% and 11.8136%
- Normal development (P. dumerilii embryos; degradation 1 h, dilution factor 10.6667): 24.138% and 24.6154%
- Normal development (P. dumerilii embryos; degradation 1 h, dilution factor 12.8): 51.5152% and 47.1698%
- Normal development (P. dumerilii embryos; degradation 1 h, dilution factor 16): 70.5883% and 65.2173%
- Normal development (P. dumerilii embryos; degradation 2 h, dilution factor 6.4): 11.0368% and 10.1754%
- Normal development (P. dumerilii embryos; degradation 2 h, dilution factor 8.5333): 46.773% and 42.9328%
- Normal development (P. dumerilii embryos; degradation 2 h, dilution factor 10.6667): 58.0645% and 64.2277%
- Normal development (P. dumerilii embryos; degradation 2 h, dilution factor 12.8): 77.7778% and 71.0938%
- Normal development (P. dumerilii embryos; degradation 2 h, dilution factor 16): 82.2282% and 85.1792%
- Normal development (P. dumerilii embryos; degradation 4 h, dilution factor 1.28): 3.429% and 2.688%
- Normal development (P. dumerilii embryos; degradation 4 h, dilution factor 1.6): 15.8884% and 20.3842%
- Normal development (P. dumerilii embryos; degradation 4 h, dilution factor 1.8286): 27.1674% and 32.6748%
- Normal development (P. dumerilii embryos; degradation 4 h, dilution factor 2.1333): 54.2087% and 56.2379%
- Normal development (P. dumerilii embryos; degradation 4 h, dilution factor 2.8444): 78.1453% and 71.7507%
- Normal development (P. dumerilii embryos; degradation 4 h, dilution factor 4.2667): 76.1253% and 77.0995%
- Normal development (P. dumerilii embryos; degradation 6 h, dilution factor 0.8): 0%
- Normal development (P. dumerilii embryos; degradation 6 h, dilution factor 0.9143): 0%
- Normal development (P. dumerilii embryos; degradation 6 h, dilution factor 1.0667): 6.421% and 4.805%
- Normal development (P. dumerilii embryos; degradation 6 h, dilution factor 1.28): 19.2308% and 16.923%
- Normal development (P. dumerilii embryos; degradation 6 h, dilution factor 1.6): 44.5256% and 45.8716%
- Normal development (P. dumerilii embryos; degradation 6 h, dilution factor 1.8286): 55.6999% and 52.4319%
- Normal development (P. dumerilii embryos; degradation 10 h, dilution factor 0.3657): 0%
- Normal development (P. dumerilii embryos; degradation 10 h, dilution factor 0.4267): 10.4446% and 5.949%
- Normal development (P. dumerilii embryos; degradation 10 h, dilution factor 0.512): 22.4806% and 12.844%
- Normal development (P. dumerilii embryos; degradation 10 h, dilution factor 0.64): 50% and 42.3728%
- Normal development (P. dumerilii embryos; degradation 10 h, dilution factor 0.8533): 73.1885% and 72.3577%
- Normal development (P. dumerilii embryos; degradation 10 h, dilution factor 1.28): 86.5288% and 89.8492%
- Normal development (P. dumerilii embryos; degradation 24 h, dilution factor 0.2844): 11.3922% and 10.426%
- Normal development (P. dumerilii embryos; degradation 24 h, dilution factor 0.32): 28.4579%
- Normal development (P. dumerilii embryos; degradation 24 h, dilution factor 0.3657): 46.3636% and 52.9132%
- Normal development (P. dumerilii embryos; degradation 24 h, dilution factor 0.4267): 72.0505% and 66.5657%
- Normal development (P. dumerilii embryos; degradation 24 h, dilution factor 0.512): 75.7656% and 68.6094%
- Normal development (P. dumerilii embryos; degradation 24 h, dilution factor 0.64): 71.3237% and 68.0033%
- Normal development (P. dumerilii embryos; degradation 48 h, dilution factor 0.2695): 37.7015% and 37.2985%
- Normal development (P. dumerilii embryos; degradation 48 h, dilution factor 0.2844): 52.938% and 47.9316%
- Normal development (P. dumerilii embryos; degradation 48 h, dilution factor 0.32): 57.0093% and 59.2105%
- Normal development (P. dumerilii embryos; degradation 48 h, dilution factor 0.3657): 74.6032% and 77.2414%
- Normal development (P. dumerilii embryos; degradation 48 h, dilution factor 0.4267): 81.3111% and 83.4889%
- Toxicity relative to PCMX (times less toxic) (P. dumerilii embryos; after 48-h degradation in seawater in darkness): 31 times
- EC50,DF as share of EC50,DF of PCMX (P. dumerilii embryos; after 48 h degradation in darkness): 3.0%
- Dose for achieving 3-log inactivation of S. aureus (S. aureus (ATCC 25923); pH 7.2, contact time 5 min): 28.6 mg L−1
- S. aureus inactivation rate constant k (S. aureus (ATCC 25923); pH 7.2, contact time 5 min): 20200 µL/min/mg
- half-life at 10 mg L−1 ([1]; buffer, pH 6.2): 76.2 h
- half-life at 10 mg L−1 ([1]; buffer, pH 7.2): 13.4 h
- half-life at 10 mg L−1 ([1]; buffer, pH 8.2): 1.74 h
- Degradation rate constant k ([1]; pH 6.2, without solar irradiation): 0.009 h⁻¹
- Ln (C/C0) ([1]; pH 6.2 in darkness, 0 h): 0
- Ln (C/C0) ([1]; pH 7.2 in darkness, 0 h): 0
- Ln (C/C0) ([1]; seawater pH 8.2, darkness, 0 h): 0
- Degradation rate constant k ([1]; seawater pH 8.2, without solar irradiation): 0.397 h‒1
- Disinfection efficiency relative to PCMX (ratio of doses for 3-log inactivation) (E. coli (ATCC 25922); E. coli, S. aureus, C. albicans and MS2, pH 7.2, 5 min): 9.0–22 times
- Log reduction (Mean ± SD) (E. coli (ATCC 25922); E. coli, dose 7.5 mg L−1, pH 7.2, contact time 5 min): 0.76 ± 0.16
- Log reduction (Mean ± SD) (E. coli (ATCC 25922); E. coli, dose 15 mg L−1, pH 7.2, contact time 5 min): 4.24 ± 0.22
- EC (3-log inactivation) (E. coli (ATCC 25922); pH 7.2, read-out: Dose for achieving 3-log inactivation of E. coli): 12.8 µg/mL
- E. coli inactivation rate constant k (E. coli (ATCC 25922); pH 7.2, contact time 5 min): 5.50 L mg‒1 h‒1
